Tests used:
[1] = molecular target: Multidrug resistance-associated protein 1 (Homo sapiens, UniProt P33527); assay: TP_TRANSPORTER: inhibition of DNP-SG uptake (DNP-SG: 10 uM, Glutathione S-conjugate of ethacrynic acid: 10uM) in membrane vesicles from S1(MRP) cells; type: functional, cell membranes, Membrane vesicle; parameters: scale not given: the % may be the effect or the level left
[2] = molecular target: Multidrug resistance-associated protein 1 (MRP1) (Homo sapiens, UniProt P33527); assay: TP_TRANSPORTER: inhibition of DNP-SG uptake (DNP-SG: 10 uM, 4-Glutathionyl cyclophosphamide: 1000uM) in membrane vesicles from S1(MRP) cells; type: functional, cell membranes, Membrane vesicle; parameters: scale not given: the % may be the effect or the level left; conditions: probe DNP-SG, read-out: Activity
Sequence of Multidrug resistance-associated protein 1 (MRP1) (P33527 whole entry): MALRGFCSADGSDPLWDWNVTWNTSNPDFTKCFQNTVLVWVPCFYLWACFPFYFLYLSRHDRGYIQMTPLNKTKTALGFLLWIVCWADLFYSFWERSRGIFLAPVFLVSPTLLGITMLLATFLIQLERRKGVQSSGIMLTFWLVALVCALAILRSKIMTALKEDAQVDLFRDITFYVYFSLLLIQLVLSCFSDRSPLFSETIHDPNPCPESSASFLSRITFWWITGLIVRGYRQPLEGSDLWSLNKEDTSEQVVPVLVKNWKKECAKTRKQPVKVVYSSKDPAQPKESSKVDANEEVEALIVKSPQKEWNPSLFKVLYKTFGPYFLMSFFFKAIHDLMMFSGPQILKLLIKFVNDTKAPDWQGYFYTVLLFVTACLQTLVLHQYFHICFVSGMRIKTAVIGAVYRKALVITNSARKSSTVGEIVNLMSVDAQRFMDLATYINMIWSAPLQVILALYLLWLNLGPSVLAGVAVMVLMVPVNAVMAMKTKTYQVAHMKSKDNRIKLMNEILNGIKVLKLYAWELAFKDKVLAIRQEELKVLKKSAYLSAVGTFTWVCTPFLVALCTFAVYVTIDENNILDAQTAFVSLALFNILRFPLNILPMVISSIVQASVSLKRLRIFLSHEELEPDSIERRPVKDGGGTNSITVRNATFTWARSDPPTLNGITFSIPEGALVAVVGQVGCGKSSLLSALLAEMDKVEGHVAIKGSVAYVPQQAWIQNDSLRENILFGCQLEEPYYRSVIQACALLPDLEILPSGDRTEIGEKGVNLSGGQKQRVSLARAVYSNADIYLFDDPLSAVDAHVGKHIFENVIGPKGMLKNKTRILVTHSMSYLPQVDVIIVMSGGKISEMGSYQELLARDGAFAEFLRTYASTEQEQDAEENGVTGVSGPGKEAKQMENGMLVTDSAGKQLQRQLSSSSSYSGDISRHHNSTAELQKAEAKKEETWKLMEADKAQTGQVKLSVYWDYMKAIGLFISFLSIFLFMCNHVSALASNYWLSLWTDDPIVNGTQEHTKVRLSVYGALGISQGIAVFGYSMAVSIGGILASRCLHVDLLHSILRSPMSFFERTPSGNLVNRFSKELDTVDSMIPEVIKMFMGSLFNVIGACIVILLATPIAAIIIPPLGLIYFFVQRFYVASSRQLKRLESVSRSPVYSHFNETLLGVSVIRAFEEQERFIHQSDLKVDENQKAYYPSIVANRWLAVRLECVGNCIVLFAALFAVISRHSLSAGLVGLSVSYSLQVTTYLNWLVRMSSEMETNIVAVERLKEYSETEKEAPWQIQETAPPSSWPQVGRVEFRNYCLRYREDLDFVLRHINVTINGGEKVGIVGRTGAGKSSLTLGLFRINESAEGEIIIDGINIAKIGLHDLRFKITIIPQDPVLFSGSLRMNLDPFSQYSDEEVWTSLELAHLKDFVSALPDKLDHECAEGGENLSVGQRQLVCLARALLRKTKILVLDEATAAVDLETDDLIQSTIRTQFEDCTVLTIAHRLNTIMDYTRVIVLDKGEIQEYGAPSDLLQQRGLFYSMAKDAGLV

Sequence of Multidrug resistance-associated protein 1 (P33527 whole entry): as above

Activity [1]	Compound	activity at 1000 µM [2]
4%	CCC(CSC[C@@H](NC(=O)CC[C@H](N)C(=O)O)C(=O)NCC(=O)O)C(=O)c1ccc(OCC(=O)O)c(Cl)c1Cl (some centres not stated)	–
–	NC(CCC(=O)NC(CSC1CCOP(=O)(N(CCCl)CCCl)N1)C(=O)NCC(=O)O)C(=O)O (configuration not stated)	44%

Source: ChEMBL document CHEMBL2074303, “Transport of the glutathione conjugate of ethacrynic acid by the human multidrug resistance protein MRP” (FEBS Lett, 1996)
